Assays:
[1] = Solubility to chloroform (saturated chloroform solutions); format: physicochemical; conditions: mass percent concentration of saturated chloroform solution
Protocol: (1) Measurement of Solubility
Solubility was measured using chloroform as a solvent.

[2] = Cyclic voltammetry (CV) in dichloromethane; format: physicochemical; conditions: n-BuN4PF6 0.1 M, silver/silver chloride reference electrode, 100 mV/sec
Protocol: (3) Measurement of CV (Cyclic Voltammetry)
CV was measured using dichloromethane as a solvent, tetrabutylammonium hexafluorophosphate (n-BuN4PF6, 0.1 M) as a supporting salt, platinum wires as a working electrode and a counter electrode, and a silver/sliver chloride electrode as a reference electrode, and sweeping the electric potential at a rate of 100 mV/sec.

| Solubility to Chloroform [1] | first half-wave reduction potential [2] | second half-wave reduction potential [2] | SMILES |
| --- | --- | --- | --- |
| 0.20 w/w % | 0.15 V | −0.14 V | CCCCCCCCCCCCc1cc2c(cc(CCCCCCCCCCCC)c3cc(=C(C#N)C#N)sc32)c2sc(=C(C#N)C#N)cc12 [Compound 112] |
| 0.53 w/w % | 0.15 V | −0.14 V | CCCCC(CC)Cc1cc2c(cc(CC(CC)CCCC)c3cc(=C(C#N)C#N)sc32)c2sc(=C(C#N)C#N)cc12 (stereo not shown) [Compound 119] |
|  | 0.15 V | −0.14 V | CCCCCCCCCCCCCCCCc1cc2c(cc(CCCCCCCCCCCCCCCC)c3cc(=C(C#N)C#N)sc32)c2sc(=C(C#N)C#N)cc12 [Compound 114] |
|  | 0.15 V | −0.14 V | CCCCCCCCc1cc2c(cc(CCCCCCCC)c3cc(=C(C#N)C#N)sc32)c2sc(=C(C#N)C#N)cc12 [Compound 110] |
